Source: patent US6376497B1, “Antifungal azole derivatives having a fluorinated vinyl group and process for preparing same” (Korea Research Institute of Chemical Technology, priority 1999, dated 2002)
Converted amounts (≈) assume the structure as drawn.

Tests used:
Test in all cases: In vitro antifungal activity, microbroth dilution MIC
Assay type in all cases: cell-based
[1] = test system: Aspergillus niger A. 16404; conditions: 4 to 48 hours; for Minimal inhibitory concentration(MIC), A. niger A. 16404: RPMI-1640, 35° C., no growth observed; for Minimal inhibitory concentration (MIC): A. niger A. 16404, RPMI-1640, 35° C.
Procedure, shortened: (§1)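 Broth microdilution adapted from NCCLS M27, in RPMI-1640 with 0.165 M MOPS, pH 7.0. Yeast or mould inoculum at 2×10^3 CFU/ml was mixed 1:1 with DMSO-derived compound solutions (200 to 0.10 μg/ml before mixing) and incubated at 35 °C for 4 to 48 h. MIC was the concentration showing no growth.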

[2] = test system: Trichophyton mentagrophytes B. 32663; conditions: 4 to 48 hours; for Minimal inhibitory concentration(MIC), T. mentagrophytes B. 32663: RPMI-1640, 35° C., no growth observed; for Minimal inhibitory concentration (MIC): T. mentagrophytes B. 32663, RPMI-1640, 35° C.
Procedure, shortened: as §1

[3] = test system: Candida tropicalis A. 13803; conditions: 4 to 48 hours; for Minimal inhibitory concentration(MIC), C. tropicalis A. 13803: RPMI-1640, 35° C., no growth observed; for Minimal inhibitory concentration (MIC): C. tropicalis A. 13803, RPMI-1640, 35° C.
Procedure, shortened: as §1

[4] = test system: Cryptococcus neoformans B. 42419; conditions: 4 to 48 hours; for Minimal inhibitory concentration(MIC), Cry. neoformans B. 42419: RPMI-1640, 35° C., no growth observed; for Minimal inhibitory concentration (MIC): Cry. neoformans B. 42419, RPMI-1640, 35° C.
Procedure, shortened: as §1

[5] = test system: Trichophyton mentagrophytes A. 9129; conditions: 4 to 48 hours; for Minimal inhibitory concentration(MIC), T. mentagrophytes A. 9129: RPMI-1640, 35° C., no growth observed; for Minimal inhibitory concentration (MIC): T. mentagrophytes A. 9129, RPMI-1640, 35° C.
Procedure, shortened: as §1

[6] = test system: Candida albicans IFO. 1385; conditions: 4 to 48 hours; for Minimal inhibitory concentration(MIC), C. albicans IFO. 1385: RPMI-1640, 35° C., no growth observed; for Minimal inhibitory concentration (MIC): C. albicans IFO. 1385, RPMI-1640, 35° C.
Procedure, shortened: as §1

[7] = test system: Candida parapsitosis A. 7330; conditions: 4 to 48 hours; for Minimal inhibitory concentration(MIC), C. parapsitosis A. 7330: RPMI-1640, 35° C., no growth observed; for Minimal inhibitory concentration (MIC): C. parapsitosis A. 7330, RPMI-1640, 35° C.
Procedure, shortened: as §1

[8] = test system: Candida krusei K. 11655; conditions: 4 to 48 hours; for Minimal inhibitory concentration(MIC), C. krusei K. 11655: RPMI-1640, 35° C., no growth observed; for Minimal inhibitory concentration (MIC): C. krusei K. 11655, RPMI-1640, 35° C.
Procedure, shortened: as §1

[9] = test system: Cryptococcus neoformans A. 34144; conditions: 4 to 48 hours; for Minimal inhibitory concentration(MIC), Cry. neoformans A. 34144: RPMI-1640, 35° C., no growth observed; for Minimal inhibitory concentration (MIC): Cry. neoformans A. 34144, RPMI-1640, 35° C.
Procedure, shortened: as §1

[10] = test system: Cryptococcus neoformans IFM. 40092; conditions: 4 to 48 hours; for Minimal inhibitory concentration(MIC), Cry. neoformans IFM. 40092: RPMI-1640, 35° C., no growth observed; for Minimal inhibitory concentration (MIC): Cry. neoformans IFM. 40092, RPMI-1640, 35° C.
Procedure, shortened: as §1

[11] = test system: Aspergillus furnigatus B. 19119; conditions: 4 to 48 hours; for Minimal inhibitory concentration(MIC), A furnigatus B. 19119: RPMI-1640, 35° C., no growth observed; for Minimal inhibitory concentration (MIC): A furnigatus B. 19119, RPMI-1640, 35° C.
Procedure, shortened: as §1

[12] = test system: Candida pseudotropicalis K. 11658; conditions: 4 to 48 hours; for Minimal inhibitory concentration(MIC), C. pseudotropicalis K. 11658: RPMI-1640, 35° C., no growth observed; for Minimal inhibitory concentration (MIC): C. pseudotropicalis K. 11658, RPMI-1640, 35° C.
Procedure, shortened: as §1

[13] = test system: Torulopsis glabrata B. 16205; conditions: 4 to 48 hours; for Minimal inhibitory concentration(MIC), T. glabrata B. 16205: RPMI-1640, 35° C., no growth observed; for Minimal inhibitory concentration (MIC): T. glabrata B. 16205, RPMI-1640, 35° C.
Procedure, shortened: as §1

[14] = test system: Candida albicans C1-2; conditions: 4 to 48 hours; for Minimal inhibitory concentration(MIC), C. albicans C1-2: RPMI-1640, 35° C., no growth observed; for Minimal inhibitory concentration (MIC): C. albicans C1-2, RPMI-1640, 35° C.
Procedure, shortened: as §1

[15] = test system: Candida albicans A. 10231; conditions: 4 to 48 hours; for Minimal inhibitory concentration(MIC), C. albicans A. 10231: RPMI-1640, 35° C., no growth observed; for Minimal inhibitory concentration (MIC): C. albicans A. 10231, RPMI-1640, 35° C.
Procedure, shortened: as §1

SMILES | Minimal inhibitory concentration(MIC), A. niger A. 16404 [1] [µg/mL] | Minimal inhibitory concentration(MIC), T. mentagrophytes B. 32663 [2] [µg/mL] | Minimal inhibitory concentration(MIC), C. tropicalis A. 13803 [3] [µg/mL] | Minimal inhibitory concentration(MIC), Cry. neoformans B. 42419 [4] [µg/mL] | Minimal inhibitory concentration(MIC), T. mentagrophytes A. 9129 [5] [µg/mL] | Minimal inhibitory concentration (MIC) [1] [µg/mL] | Minimal inhibitory concentration (MIC) [2] [µg/mL] | Minimal inhibitory concentration (MIC) [3] [µg/mL] | Minimal inhibitory concentration (MIC) [4] [µg/mL] | Minimal inhibitory concentration (MIC) [5] [µg/mL] | Minimal inhibitory concentration (MIC) [6] [µg/mL] | Minimal inhibitory concentration (MIC) [7] [µg/mL] | Minimal inhibitory concentration (MIC) [8] [µg/mL] | Minimal inhibitory concentration (MIC) [9] [µg/mL] | Minimal inhibitory concentration (MIC) [10] | Minimal inhibitory concentration (MIC) [11] [µg/mL] | Minimal inhibitory concentration (MIC) [12] [µg/mL] | Minimal inhibitory concentration (MIC) [13] [µg/mL] | Minimal inhibitory concentration (MIC) [14] [µg/mL] | Minimal inhibitory concentration (MIC) [15] [µg/mL] | other results
COc1ccc(C(=C(F)OCC2COC(Cn3cncn3)(c3ccc(Cl)cc3Cl)O2)C(F)(F)F)cc1 (mixture of isomers) [Ex. 84] | >100 | >100 | >100 | 1.56 | >100 |  |  |  |  |  |  |  |  |  |  |  |  |  |  |  | Minimal inhibitory concentration(MIC), C. albicans IFO. 1385 [6]: 6.25 µg/mL; Minimal inhibitory concentration(MIC), C. parapsitosis A. 7330 [7]: >100 µg/mL; Minimal inhibitory concentration(MIC), C. krusei K. 11655 [8]: >100 µg/mL; Minimal inhibitory concentration(MIC), Cry. neoformans A. 34144 [9]: 1.56 µg/mL; Minimal inhibitory concentration(MIC), Cry. neoformans IFM. 40092 [10]: 0.78 µg/mL; Minimal inhibitory concentration(MIC), A furnigatus B. 19119 [11]: >100 µg/mL; Minimal inhibitory concentration(MIC), C. pseudotropicalis K. 11658 [12]: >100 µg/mL; Minimal inhibitory concentration(MIC), T. glabrata B. 16205 [13]: >100 µg/mL; Minimal inhibitory concentration(MIC), C. albicans C1-2 [14]: 100 µg/mL; Minimal inhibitory concentration(MIC), C. albicans A. 10231 [15]: >100 µg/mL
Cc1cc(C)c(C=C(F)OCC2COC(Cn3ccnc3)(c3ccc(F)cc3F)O2)cc1C (mixture of isomers) [Ex. 42] |  |  |  |  |  | 100 | 1.56 | 25.0 | 0.78 | 6.25 | 0.78 | 25.0 | 25.0 | 0.78 | ≦0.10 μg/ml | 12.5 | 25.0 | 6.25 | 12.5 | 12.5 | 
COc1ccc(C=C(F)OCC2COC(Cn3ccnc3)(c3ccc(Cl)cc3Cl)O2)cc1 (stereo not drawn) [Ex. 9] |  |  |  |  |  | 6.25 (≈ 13 µM) | 1.56 (≈ 3.25 µM) | 25.0 (≈ 52.2 µM) | 1.56 (≈ 3.25 µM) | 3.13 (≈ 6.53 µM) | 1.56 (≈ 3.25 µM) | 12.5 (≈ 26.1 µM) | 6.25 (≈ 13 µM) | 3.13 (≈ 6.53 µM) | 0.78 µg/mL (≈ 1.63 µM) | 6.25 (≈ 13 µM) | 6.25 (≈ 13 µM) | 6.25 (≈ 13 µM) | 25.0 (≈ 52.2 µM) | 12.5 (≈ 26.1 µM) | 
Cc1cc(C)cc(C(=C(F)OCC2COC(Cn3ccnc3)(c3ccc(F)cc3F)O2)C(F)(F)F)c1 (mixture of isomers) [Ex. 57] |  |  |  |  |  | >100 | 3.13 | 100 | 0.78 | 6.25 | 0.78 | >100 | >100 | 1.56 | 0.20 µg/mL | 50.0 | >100 | 6.25 | 12.5 | 12.5 | 
CC(C)(C)c1ccc(C(=C(F)Oc2ccc(OCC3COC(Cn4ccnc4)(c4ccc(F)cc4F)O3)cc2)C(F)(F)F)cc1 (mixture of isomers) [Ex. 109] | >100 | 3.13 | >100 | 3.13 | 6.25 |  |  |  |  |  |  |  |  |  |  |  |  |  |  |  | Minimal inhibitory concentration(MIC), C. albicans IFO. 1385 [6]: 3.13 µg/mL; Minimal inhibitory concentration(MIC), C. parapsitosis A. 7330 [7]: >100 µg/mL; Minimal inhibitory concentration(MIC), C. krusei K. 11655 [8]: >100 µg/mL; Minimal inhibitory concentration(MIC), Cry. neoformans A. 34144 [9]: 1.56 µg/mL; Minimal inhibitory concentration(MIC), Cry. neoformans IFM. 40092 [10]: 0.39 µg/mL; Minimal inhibitory concentration(MIC), A furnigatus B. 19119 [11]: >100 µg/mL; Minimal inhibitory concentration(MIC), C. pseudotropicalis K. 11658 [12]: >100 µg/mL; Minimal inhibitory concentration(MIC), T. glabrata B. 16205 [13]: 100 µg/mL; Minimal inhibitory concentration(MIC), C. albicans C1-2 [14]: 50.0 µg/mL; Minimal inhibitory concentration(MIC), C. albicans A. 10231 [15]: 100 µg/mL
FC(=Cc1ccc(Cl)cc1)OCC1COC(Cn2ccnc2)(c2ccc(Cl)cc2Cl)O1 (stereo not drawn) [Ex. 14] |  |  |  |  |  | 6.25 (≈ 12.9 µM) | 0.78 (≈ 1.61 µM) | 12.5 (≈ 25.8 µM) | 0.78 (≈ 1.61 µM) | 1.56 (≈ 3.22 µM) | 0.39 (≈ 0.806 µM) | 12.5 (≈ 25.8 µM) | 6.25 (≈ 12.9 µM) | 0.78 (≈ 1.61 µM) | 0.39 µg/mL (≈ 0.806 µM) | 6.25 (≈ 12.9 µM) | 3.13 (≈ 6.47 µM) | 6.25 (≈ 12.9 µM) | 12.5 (≈ 25.8 µM) | 6.25 (≈ 12.9 µM) | 
FC(Oc1ccc(OCC2COC(Cn3ccnc3)(c3ccc(Cl)cc3Cl)O2)cc1)=C(c1ccc(C(F)(F)F)cc1)C(F)(F)F (mixture of isomers) [Ex. 97] | >100 | 12.5 | >100 | 3.13 | 25.0 |  |  |  |  |  |  |  |  |  |  |  |  |  |  |  | Minimal inhibitory concentration(MIC), C. albicans IFO. 1385 [6]: 3.13 µg/mL; Minimal inhibitory concentration(MIC), C. parapsitosis A. 7330 [7]: >100 µg/mL; Minimal inhibitory concentration(MIC), C. krusei K. 11655 [8]: >100 µg/mL; Minimal inhibitory concentration(MIC), Cry. neoformans A. 34144 [9]: 3.13 µg/mL; Minimal inhibitory concentration(MIC), Cry. neoformans IFM. 40092 [10]: 0.78 µg/mL; Minimal inhibitory concentration(MIC), A furnigatus B. 19119 [11]: >100 µg/mL; Minimal inhibitory concentration(MIC), C. pseudotropicalis K. 11658 [12]: >100 µg/mL; Minimal inhibitory concentration(MIC), T. glabrata B. 16205 [13]: 100 µg/mL; Minimal inhibitory concentration(MIC), C. albicans C1-2 [14]: >100 µg/mL; Minimal inhibitory concentration(MIC), C. albicans A. 10231 [15]: >100 µg/mL
